Legend:
[1] = system: IL-1β; assay: ELISA of secreted IL-1β in neuronal/glial co-cultures; type: cell-based, rat; settings: 200 pM for 24 hours; vs controls
Protocol: (§1) TNF-α and IL-1β secreted protein levels were determined from co-culture supernatants using commercially available rat TNF-α and IL-1β kits (Quantikine, R&D Systems). The assays were performed following the manufacturer's instructions. Absorbance was read at 450 nm using Wallac Victor2 1420 Multilabel Counter (PerkinElmer). The concentration of secreted TNF-α and IL-1β are expressed as picograms per milliliter (pg/mL); values were normalized to total protein content for each well.

[2] = Attention set-shifting task after gp120 infusions; type: in vivo, rat; settings: SD rats, vs BSA
Protocol: Rats (200-400 g, male Sprague-Dawley, Taconic Farms) were stereotaxically implanted, under isoflurane anesthesia, with stainless-steel cannulas placed 0.96 mm posterior and 3.18 mm lateral to bregma, 3.47 mm below the surface of the cranium at an angle of 22°. Four stainless-steel screws (#0-80) were placed around the cannula and acrylic dental cement was used to anchor the cannula. Animals were allowed seven days to recover before receiving a bilateral infusion of 1 μl of gp120IIIB (50 ng/μl) once daily for seven days via a 10 microliter Hamilton Syringe, needle diameter 0.48 mm; infusion rate=0.374 microliters/minute. Animals were food restricted and began behavioral testing 21 days following the final infusion.
Animals were tested in an attention set-shifting task (Birrell & Brown, 2000, J. Neurosci. 20(11); 4320-4324). On day 1 of testing, food restricted rats are habituated to the testing chamber for 20 minutes. The testing chamber (17″×22″×10″ H) is divided lengthwise by a plexiglass wall with a guillotine-style door creating a waiting area (one-third of the chamber), and a testing area (remaining two-thirds of the chamber). The far wall of the testing area (furthest from the waiting area) is bisected by a plexiglass divider that extended 9.25 inches; thus creating two distinct yet easily accessible sides of the testing area. The following day, rats are trained to dig in terra cotta pots to obtain a food reward (Frosted Cheerio). The food reward is progressively buried deeper in the pots, filled with corn cob bedding, until the rat reliably digs to retrieve the food reward. On day 3, rats undergo exemplar training, discriminating between sensory cues to determine which pot contains the food reward. […] If the rat begins digging in the incorrect pot, the pots are removed from the testing area, the rat is placed back into the waiting area, and the trial is recorded as incorrect. […]

[3] = system: TNF-α; assay: ELISA of secreted TNF-α in neuronal/glial co-cultures; type: cell-based, rat; settings: 200 pM for 24 hours; vs controls
Protocol: as §1

[4] = system: FHC; assay: Neuronal FHC protein levels by Western blot in cultured cortical neurons; type: cell-based, rat
Protocol: Rat cortical neurons were cultured in the presence of a glial feeder layer, using the bilaminar cell culture model. Due to the presence of glia this culture system largely preserves the in vivo mechanisms of neuronal growth and differentiation, but also allows for direct studies on neurons, which were separated from glia at the time of analysis. Selected experiments were performed using glia-free neuronal cultures, as noted, using previously described protocols (Sengupta et al., 2009, J. Neurosci. 29:2534-2544). Neurons were transfected at the time of plating by Nucleofection (Amaxa), or after 8 days in culture by lipofectamine (Invitrogen). All experiments were conducted at 21 DIV, unless otherwise noted. HDAC4 and control (scrambled) siRNA were obtained from Ambion (s170677 and 4390843), and FHC/scrambled shRNA from GenScript (custom order; shRNA vector also expressed GFP).
Protease and phosphatases inhibitors were added to both buffers.
Rat cortical neurons were cultured in serum-free media in the presence of a glial feeder layer (Shimizu, et al., 2011, J. Vis. Exp. 57). This culture system largely preserves the in vivo environment, due to the presence of glia; however, it still enables direct investigation of neurons that can be separated by the glia before experiments. Selected studies were also performed in neurons grown in the absence of glia for the entire culture period, as indicated (Sengupta, et al., 2009, J. Neurosci. 29(8):2534-44). All experiments were conducted between 8-13 days in vitro (DIV).
Total protein extracts were obtained using standard protocols. […] The following antibodies were used: anti-FHC (3998, Cell Signaling Technology, 1:1,000) and anti-β-actin (A2066, Sigma-Aldrich, 1:5,000).

[5] = system: layer II/III pyramidal neurons of the prefrontal cortex; assay: In vivo dendritic spine analysis (Golgi stain, Neurolucida); design: species or system rat

gp120IIIB: X4-using HIV-1 envelope protein gp120, from Immunodiagnostics
secreted IL-1β levels in culture media [1]: significantly higher
attention set-shifting performance ([2]; testing 21 days after final infusion): impaired attention set-shifting performance
extra-dimensional shifts [2]: impaired in extra-dimensional shifts
reversal learning (Reversal 2, Reversal 3) [2]: impaired in the reversal learning component of the task
secreted TNF-α levels in culture media [3]: significantly higher
neuronal expression of FHC ([4]; in the presence of glial feeder layer, 200 pM, up to 24 hr): able to increase neuronal expression of FHC
neuronal FHC protein levels ([4]; pure neuronal cultures, 200 pM for 3, 6, or 24 hours): only transiently increased FHC
average dendrite length ([5]; gp120-treated rats vs BSA): no changes in the average dendrite length
number of branching points ([5]; gp120-treated rats vs BSA): reduced number of branching points
spine density ([5]; gp120IIIB 50 ng/μl, 1 μl bilateral infusion once daily for seven days, vs BSA): reduction of spine density in layer II/III PFC neurons

Reference: patent US20160271248A1, “CXCR4 UP- AND DOWN-REGULATION FOR TREATMENT OF DISEASES OR DISORDERS” (priority 2013, published 2016)
